Like-named read-outs stand apart in the source and are kept apart here.
What was measured:
[1] = Free radical scavenging activity (DPPH assay); details: compounds 1–19; Trolox equivalents; mean ± SD, triplicate
Procedure: The methanolic solutions of fractions or compounds (130 µL) were added to the DPPH solution (70 µL). The sample’s absorbance was recorded after 30 min of incubation in darkness. All tests were performed in triplicate [33]. The radical scavenging activity of the tested samples was calculated using an equation obtained through linear regression of the Trolox standard curve. The methanolic solutions of fractions or compounds (130 µL) were added to the DPPH solution (70 µL). The sample absorbance was recorded after 30 min of incubation in darkness. All tests were performed in triplicate [33]. The radical scavenging activity of the tested samples was calculated using the equation obtained through linear regression of the Trolox standard curve.

[2] = ABTS radical cation scavenging activity (Antioxidant Assay Kit); details: compounds 1–19; Trolox equivalents; mean ± SD, triplicate
Procedure: The potential inhibition of the production of the radical cation was measured using an Antioxidant Assay Kit. In short, the mixed solution, including 10 µL of the test sample, 20 µL of the myoglobin working solution, and 150 µL of the ABTS working solution, was incubated for 5 min. Then, 100 µL of the stop solution was added, and the absorbance was measured at 405 nm. All tests were performed in triplicate. The results were expressed as µM of Trolox equivalents obtained from the standard curve.

[3] = biological target: acetylcholinesterase (AChE) (Homo sapiens, UniProt P22303); test: biochemical
Procedure: Acetylcholinesterase inhibition was determined according to the previously described method [34] with a slight modification. The assay was carried out in Tris-HCl buffer (pH = 8 at 25 °C). The test extracts or compounds were diluted in the same buffer to the appropriate concentrations. Firstly, the reaction mixture containing the sample solution (50 µL), AChE solution (25 µL, 0.25 U/mL), and Ellman’s Reagent (3 mM, 125 µL) was incubated for 15 min at room temperature. Subsequently, 25 µL of ACh iodide (15 mM) was added, and after a further quarter-hour of incubation, the absorbance was estimated at 405 nm. The blank well contained the same amount of Tris-HCl buffer instead of the sample solution. […] All measurements were conducted in triplicate, and the values are presented as IC50 means with standard deviations (SDs). The percent inhibition was calculated using the following formula:Enzyme inhibition activity (%) = (B − S)/B × 100% where B is the blank, and S is the sample absorbance.

[4] = Ferric-reducing antioxidant power method (FRAP); details: compounds 1–19; ferrous ion equivalents; mean ± SD, triplicate; na = no significant activity
Procedure: The ferric-reducing power was measured using the Ferric-Reducing Antioxidant Power Assay Kit. In brief, 10 µL of the tested solution was added to 190 µL of the reaction solutions (containing FRAP Assay Buffer, FeCl3 solution, and FRAP Probe). All of the absorbance values were recorded at 594 nm after 1 h of incubation at 37 °C. The chelating activity was determined using a standard curve and evaluated as mM of ferrous ion equivalents. All tests were performed in triplicate.

[5] = Cupric ion reducing method (CUPRAC); details: compounds 1–19; Trolox equivalents; mean ± SD, triplicate; na = no significant activity
Procedure: The total antioxidant capacity was determined using an Antioxidant Assay Kit MAK334. In short, 20 µL of each fraction or compound solution was added to 100 µL of the Reaction Mix in the clear, flat-bottomed 96-well plate. The absorbance was measured at 570 nm after 10 min of incubation at room temperature. The results were determined using a standard curve evaluated for Trolox.

[6] = compounds 1–19, mean ± SD, at least triplicate, read-out: AChE IC50

Sequence of acetylcholinesterase (AChE) (P22303 32-614): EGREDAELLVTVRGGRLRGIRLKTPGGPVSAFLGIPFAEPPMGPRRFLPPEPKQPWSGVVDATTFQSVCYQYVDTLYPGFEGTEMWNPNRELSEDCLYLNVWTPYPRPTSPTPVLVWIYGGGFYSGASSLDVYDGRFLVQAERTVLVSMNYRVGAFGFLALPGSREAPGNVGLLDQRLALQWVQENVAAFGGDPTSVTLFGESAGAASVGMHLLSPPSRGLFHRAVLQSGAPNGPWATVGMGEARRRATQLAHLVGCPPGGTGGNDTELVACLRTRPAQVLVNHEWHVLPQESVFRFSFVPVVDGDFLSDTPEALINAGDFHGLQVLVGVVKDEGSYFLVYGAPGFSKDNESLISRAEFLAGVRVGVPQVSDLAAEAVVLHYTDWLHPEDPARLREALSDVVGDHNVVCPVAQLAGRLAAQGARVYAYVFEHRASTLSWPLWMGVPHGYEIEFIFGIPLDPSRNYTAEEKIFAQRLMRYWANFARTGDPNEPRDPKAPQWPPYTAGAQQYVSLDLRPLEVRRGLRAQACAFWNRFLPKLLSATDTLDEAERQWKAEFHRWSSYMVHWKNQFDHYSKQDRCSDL

**Q.** For COc1ccc(OC)c(-c2cc(=O)c3c(O)cccc3o2)c1OC [Compound 5, 5-hydroxy-2’,3’,6’-trimethoxyflavone], which DPPH [1] is on record?
**A.** The DPPH was 34.32 ± 0.97 µM Teq.

**Q.** And the ABTS [2]?
**A.** Its ABTS is 280.02 ± 1.55 µM Teq.

**Q.** What about the IC50 [3, 6] of the same compound?
**A.** Its IC50 is 284.6 ± 0.8 µM.

**Q.** With O=c1cc(-c2ccccc2)oc2cc(O)cc(O)c12 [Compound 13, 5,7-dihydroxyflavone] as the compound, how does the DPPH [1] read?
**A.** Its DPPH is 227.51 ± 1.83 µM Teq.

**Q.** What about the FRAP [4] of the same compound?
**A.** The FRAP was 0.08 ± 0.01 mM Fe^2+/mL.

**Q.** And the ABTS [2]?
**A.** Its ABTS is 728.26 ± 1.08 µM Teq.

**Q.** What about the IC50 [3, 6] of the same compound?
**A.** The IC50 was 330.1 ± 1.77 µM.

**Q.** With COc1cccc(OC)c1-c1cc(=O)c2c(O)cccc2o1 [Compound 4, 5-hydroxy-2’,6’-dimethoxyflavone] as the compound, how does the DPPH [1] read?
**A.** The DPPH was 28.63 ± 2.40 µM Teq.

**Q.** What about the ABTS [2] of the same compound?
**A.** The ABTS was 326.76 ± 6.64 µM Teq.

**Q.** What about the IC50 [3, 6] of the same compound?
**A.** Its IC50 is 325.4 ± 3.21 µM.

**Q.** What does the source list for O=c1c(O)c(-c2ccc(O)cc2)oc2cc(O)cc(O)c12 [Compound 17, kaempferol]?
**A.** DPPH [1]: 792.53 ± 7.31 µM Teq; FRAP [4]: 36.87 ± 1.20 mM Fe^2+/mL; ABTS [2]: 1095.04 ± 1.85 µM Teq; IC50 [3]: 276.9 ± 1.41 µM; CUPRAC [5]: 848.64 ± 3.49 µM Teq

**Q.** Which DPPH [1] does the source give for O=c1cc(-c2ccccc2)oc2ccc(OC3OC(COC4OC(CO)C(O)C(O)C4O)C(O)C(O)C3O)c(O)c12 (stereo not drawn) [Compound 10, 5,6-dihydroxyflavone 6-O-(6″-O-glucopyranosyl)-β-glucopyranoside] here?
**A.** Its DPPH is 204.31 ± 3.31 µM Teq.

**Q.** And the ABTS [2]?
**A.** The ABTS was 624.94 ± 5.70 µM Teq.

**Q.** And the IC50 [3, 6]?
**A.** The IC50 was 376.1 ± 1.87 µM.

**Q.** And the CUPRAC [5]?
**A.** Its CUPRAC is 19.79 ± 1.03 µM Teq.

**Q.** With O=c1cc(-c2ccccc2O[C@@H]2O[C@H](CO)[C@@H](O)[C@H](O)[C@H]2O)oc2cccc(O)c12 [Compound 9, 5,2′-dihydroxyflavone 2′-O-β-glucopyranoside] as the compound, how does the DPPH [1] read?
**A.** The DPPH was 170.56 ± 2.49 µM Teq.

**Q.** And the ABTS [2]?
**A.** Its ABTS is 204.59 ± 2.26 µM Teq.

**Q.** And the IC50 [3, 6]?
**A.** The IC50 was 399.7 ± 0.64 µM.

**Q.** What about the CUPRAC [5] of the same compound?
**A.** The CUPRAC was 20.33 ± 1.57 µM Teq.

**Q.** Which results are given for O=c1c(OC2OC(COC3OCC(O)C(O)C3O)C(O)C(O)C2O)c(-c2ccc(O)cc2)oc2cc(O)cc(O)c12 (stereo not drawn) [Compound 16, kaempferol-3-O-(6″-O-β-xylopyranosyl)-β-glucopyranoside]?
**A.** DPPH [1]: 300.29 ± 1.87 µM Teq; FRAP [4]: 0.67 ± 0.06 mM Fe^2+/mL; ABTS [2]: 717.32 ± 3.47 µM Teq; IC50 [3, 6]: 364.3 ± 1.79 µM; CUPRAC [5]: 74.40 ± 1.49 µM Teq

**Q.** What does the source list for CC1OC(OCC2OC(Oc3c(-c4ccc(O)cc4)oc4cc(O)cc(O)c4c3=O)C(O)C(O)C2O)C(O)C(O)C1O (stereo not drawn) [Compound 15, kaempferol 3-O-(6″-O-α-rhamnopyranosyl)-β-glucopyranoside]?
**A.** DPPH [1]: 250.72 ± 1.65 µM Teq; FRAP [4]: 0.40 ± 0.06 mM Fe^2+/mL; ABTS [2]: 702.29 ± 2.47 µM Teq; IC50 [3, 6]: 407.4 ± 1.41 µM; CUPRAC [5]: 56.81 ± 1.52 µM Teq

**Q.** With O=C(CC(=O)c1ccccc1)c1ccccc1 [Compound 1, 1,3-diphenylpropane-1,3-dione] as the compound, how does the DPPH [1] read?
**A.** Its DPPH is 39.81 ± 2.76 µM Teq.

**Q.** What about the ABTS [2] of the same compound?
**A.** Its ABTS is 300.12 ± 4.97 µM Teq.

**Q.** What about the IC50 [3, 6] of the same compound?
**A.** The IC50 was 144.8 ± 1.3 µM.

**Q.** And the CUPRAC [5]?
**A.** Its CUPRAC is 3.18 ± 0.32 µM Teq.

**Q.** Which DPPH [1] does the source give for COc1ccccc1-c1cc(=O)c2c(O)cccc2o1 [Compound 3, 5-hydroxy-2′-methoxyflavone] here?
**A.** Its DPPH is 39.39 ± 1.59 µM Teq.

**Q.** What about the ABTS [2] of the same compound?
**A.** The ABTS was 330.59 ± 4.04 µM Teq.

**Q.** And the IC50 [3, 6]?
**A.** The IC50 was 279.7 ± 0.45 µM.

**Q.** Which DPPH [1] does the source give for O=c1cc(-c2ccccc2)oc2ccc(O)c(O)c12 [Compound 12, 5,6-dihydroxyflavone] here?
**A.** The DPPH was 1522.38 ± 7.31 µM Teq.

**Q.** What about the FRAP [4] of the same compound?
**A.** The FRAP was 54.25 ± 1.03 mM Fe^2+/mL.

**Q.** What about the ABTS [2] of the same compound?
**A.** The ABTS was 1052.41 ± 5.51 µM Teq.

**Q.** What about the IC50 [3, 6] of the same compound?
**A.** The IC50 was 362.2 ± 0.39 µM.

**Q.** And the CUPRAC [5]?
**A.** Its CUPRAC is 1060.42 ± 5.33 µM Teq.

**Q.** For C[C@@H]1O[C@@H](OC[C@H]2O[C@@H](Oc3c(-c4ccc(O)c(O)c4)oc4cc(O)cc(O)c4c3=O)[C@H](O)[C@@H](O)[C@@H]2O)[C@H](O)[C@H](O)[C@H]1O [Compound 19, quercetin 3-O-(6″-O-α-rhamnopyranosyl)-β-glucopyranoside], which DPPH [1] is on record?
**A.** The DPPH was 1467.53 ± 5.48 µM Teq.

**Q.** What about the FRAP [4] of the same compound?
**A.** The FRAP was 52.98 ± 1.35 mM Fe^2+/mL.

**Q.** And the ABTS [2]?
**A.** Its ABTS is 1149.16 ± 5.25 µM Teq.

**Q.** What about the IC50 [3] of the same compound?
**A.** The IC50 was 445.32 ± 0.35 µM.

**Q.** And the CUPRAC [5]?
**A.** The CUPRAC was 1258.68 ± 3.49 µM Teq.

**Q.** What does the source list for COc1ccc2oc(-c3ccccc3O)cc(=O)c2c1O [Compound 6, 2’,5-dihydroxy-6-methoxyflavone]?
**A.** DPPH [1]: 227.55 ± 2.85 µM Teq; FRAP [4]: 15.81 ± 0.85 mM Fe^2+/mL; ABTS [2]: 781.28 ± 4.38 µM Teq; IC50 [3, 6]: 391.8 ± 1.06 µM; CUPRAC [5]: 366.29 ± 1.24 µM Teq

**Q.** For COc1ccc(O)c(-c2cc(=O)c3c(O)cccc3o2)c1OC [Compound 7, 5,6′-dihydroxy-2′,3′-dimethoxyflavone], which DPPH [1] is on record?
**A.** The DPPH was 37.85 ± 1.90 µM Teq.

**Q.** And the ABTS [2]?
**A.** The ABTS was 277.56 ± 2.88 µM Teq.

**Q.** What about the IC50 [3, 6] of the same compound?
**A.** The IC50 was 390.8 ± 0.66 µM.

**Q.** Which DPPH [1] does the source give for O=c1cc(-c2ccccc2)oc2cccc(O)c12 [Compound 2, 5-hydroxyflavone] here?
**A.** Its DPPH is 41.71 ± 2.28 µM Teq.

**Q.** What about the ABTS [2] of the same compound?
**A.** The ABTS was 317.47 ± 3.91 µM Teq.

**Q.** And the IC50 [3, 6]?
**A.** Its IC50 is 314.4 ± 1.72 µM.

**Q.** What does the source list for O=c1c(OC2OC(COC3OCC(O)C(O)C3O)C(O)C(O)C2O)c(-c2ccc(O)c(O)c2)oc2cc(O)cc(O)c12 (stereo not drawn) [Compound 18, quercetin 3-O-(6″-O-β-xylopyranosyl)-β-glucopyranoside]?
**A.** DPPH [1]: 1336.75 ± 6.33 µM Teq; FRAP [4]: 63.98 ± 1.75 mM Fe^2+/mL; ABTS [2]: 1147.52 ± 7.06 µM Teq; IC50 [3, 6]: 303 ± 3.33 µM; CUPRAC [5]: 1401.11 ± 2.64 µM Teq

**Q.** Which results are given for O=c1cc(-c2ccccc2O)oc2cccc(O)c12 [Compound 11, 5,2′-dihydroxyflavone]?
**A.** DPPH [1]: 175.83 ± 2.83 µM Teq; FRAP [4]: 0.07 ± 0.01 mM Fe^2+/mL; ABTS [2]: 661.30 ± 3.81 µM Teq; IC50 [3, 6]: 371.5 ± 0.66 µM; CUPRAC [5]: 44.50 ± 1.35 µM Teq

Reference: publication PMC9692424, “In Vitro Screening for Anti-Acetylcholinesterase and Antioxidant Activities of Hottonia palustris L. Extracts and Their Unusual Flavonoids” (Molecules, 2022)
